Laboratory results published in US20230174472A1, “THERAPEUTIC USE OF PLEUROMUTILINS” (priority 2020, published 2023).
Where two headings read alike, the source gives them in different places.

How the values were obtained:
[1] = test system: influenza A/Puerto Rico/8/34 (H1N1); assay type: in vivo, BALB/c mice
in vitro [2] = conditions: dog
polio virus = conditions: cited from earlier work
[3] = test system: influenza A virus strain (PR8); conditions: cited from earlier work
[4] = test system: vesicular stomatitis virus (VSV); conditions: cited from earlier work
[5] = test system: herpes simplex type 1 (HSV-1) virus; conditions: cited from earlier work
[6] = test system: alpha coronavirus 229E (HCoV-229E); experiment: inhibition of virus-induced CPE, CoV229E in MRC-5 cells (XTT); assay type: cell-based
Experimental: The antiviral compound Remdesivir served as positive control.
Lefamulin (as acetate) was evaluated using different treatment conditions of 4 h, 1 h or 0 h incubation prior to virus addition and addition 1 h after infection For this particular set of experiments, coronavirus was diluted 1:200 in assay medium and added at 100 μL/well to achieve approximately 90% cell killing in the untreated virus control wells (MOI of 0.001).

in vitro [7] = conditions: human
in vitro [8] = conditions: human; remark: listed apart in the source
[9] = test system: human rhinovirus strain HRV16 strain 11757; experiment: inhibition of virus-induced CPE, human rhinovirus in H1-HeLa cells; assay type: cell-based; conditions: Human rhinovirus sp., 4 hour pretreatment
Experimental: Cell viability determination as well as EC50 and TC50 calculations were performed as described in Examples 6 and 8.

[10] = test system: mice challenged with lipopolysaccharide (LPS); experiment: modified LPS induced lung neutrophilia model, BALF cell counts 24 h post LPS (Example 4)
[11] = cell viability of uninfected Huh7 cells; conditions: human, TC50, Example 13 (Zika assay)
[12] = test system: respiratory syncytial virus (RSV B18537); experiment: inhibition of virus-induced CPE, RSV B18537 in HEp2 cells; conditions: Example 10; investigated strain of RSV B
[13] = test system: human respiratory syncytial virus (strain RSVA2); experiment: inhibition of virus-induced CPE, RSVA2 in HEp2 cells (XTT)
[14] = test system: respiratory syncytial virus (RSV ALONG); experiment: inhibition of virus-induced CPE, RSV ALONG in HEp2 cells; conditions: Example 10; investigated strain of RSV A
in vitro [15] = conditions: human, TC50
HEp2 cells = experiment: cell viability of uninfected HEp2 cells (XTT); conditions: Example 8
[16] = test system: human respiratory syncytial virus (strain RSVA2); conditions: Example 8
MRC-5 cells = conditions: Example 6
[17] = test system: TNF-α, IL-6, IL-1β, GM-CSF, CXCL1, CXCL2, CCL2, MMP9 in lung homogenate; experiment: LPS induced lung neutrophilia model, marker concentrations in lung homogenate (Example 2)
[18] = test system: influenza A virus, porcine reproductive and respiratory syndrome virus (PRRSV) type 1 and 2; conditions: WO 2009/106839; compared to Tiamulin 0.1-10 μg/mL; cited from earlier work
[19] = test system: mice challenged with lipopolysaccharide (LPS); experiment: LPS induced lung neutrophilia model, BALF cell counts (Example 2); conditions: 10, 30 and 100 mg/kg SC; 4 h post LPS
[20] = test system: lipopolysaccharide (LPS)-induced ALI; conditions: cited from earlier work
[21] = lower doses of 10 and 30 mg/kg SC
[22] = same doses (10, 30, 100 mg/kg SC)

CCOC(=O)C1=C[C@@H](OC(CC)CC)[C@H](NC(C)=O)[C@@H](N)C1 [Oseltamivir, reference compound]
lung viral titres (TCID50 on MDCK cells) ([1]; Lefamulin at both doses, Oseltamivir positive control, Day 3 and Day 6, vs vehicle treated control): reduced | bodyweight loss ([1]; positive control treatment): reduction | clinical scores ([1]; positive control treatment): reduction | CC50 (in vitro [2]): > 200000 nM

C=C[C@]1(C)C[C@@H](OC(=O)CO)[C@]2(C)[C@H](C)CC[C@]3(CCC(=O)[C@H]32)[C@@H](C)[C@@H]1O [Pleuromutilin]
antiviral activity for polio virus (polio virus): did not show antiviral activity | concentration with antiviral activity [3]: 2 mg/mL | activity against vesicular stomatitis virus (VSV) [4]: activity | concentration that conferred a 50% protection of the cytopathic effect induced by HSV-1 (CPE50) [5]: 15 µg/mL | EC50 ([5]; read-out: concentration that conferred a 50% protection of the cytopathic effect induced by HSV-1 (CPE50)): 40000 nM

CCC(CC)COC(=O)[C@H](C)N[P@](=O)(OC[C@H]1O[C@@](C#N)(c2ccc3c(N)ncnn23)[C@H](O)[C@@H]1O)Oc1ccccc1 [Remdesivir, reference compound]
EC50 ([6]; Human coronavirus 229E, MRC5): 110 nM | CC50 (in vitro [7]): > 5000 nM

CCOC(=O)/C=C/[C@H](C[C@@H]1CCNC1=O)NC(=O)[C@@H](CC(=O)[C@@H](NC(=O)c1cc(C)on1)C(C)C)Cc1ccc(F)cc1 [Rupintrivir]
CC50 (in vitro [8]): > 100 nM | EC50 [9]: 4.9 nM | EC50 ([9]; MOI 0.0005, Lefamulin as acetate): 4.9 nM

C=C(CC(=O)[O-])C(=O)[O-].[Na+].[Na+] [Sodium itaconate, reference compound]
BALF cell counts ([10]; 55 mg/kg single SC dose 30 min prior to IN LPS): some reduction

CC(C)OC(=O)[C@H](C)N[P@](=O)(OC[C@H]1O[C@@H](n2ccc(=O)[nH]c2=O)[C@](C)(F)[C@@H]1O)Oc1ccccc1 [Sofosbuvir, reference compound]
CC50 at 6 days [11]: > 10000 nM

Cc1ccc(CCCO)c(NCc2ccc3nc(NCCCN4CCOCC4)n(Cc4nc(C)ccc4O)c3c2)c1 [TMC353121]
EC50 [12]: 0.01 nM | EC50 ([13]; Example 8, HEp2 cells, 4 h incubation prior to virus, MOI 0.001, 6 days post-infection, Lefamulin as acetate, Tiamulin as fumarate): 0.6 nM | EC50 ([13]; Example 9, MOI 0.0004): 0.04 nM | EC50 ([13]; Example 9, MOI 0.0008): 0.3 nM | EC50 ([13]; Example 9, MOI 0.001): 0.2 nM | EC50 ([13]; Example 9, MOI 0.003): 0.2 nM | EC50 [14]: 0.01 nM

C=C[C@]1(C)C[C@@H](OC(=O)CSCCN(CC)CC)[C@]2(C)[C@H](C)CC[C@]3(CCC(=O)[C@H]32)[C@@H](C)[C@@H]1O [Tiamulin, reference compound]
reduction of viral CPE ([6]; 10 µM): 10.53% | reduction of viral CPE ([6]; 50 μM): 81.68% | EC50 ([6]; Example 6, MRC-5 cells, 4 h incubation prior to virus, MOI 0.001, 6 days post-infection, Lefamulin as acetate, Tiamulin as fumarate, read-out: EC50): 24400 nM | CC50 at 6 days (in vitro [15]): 67900 nM | EC50 ([13]; human respiratory syncytial virus, HEp-2, Example 8, HEp2 cells, 4 h incubation prior to virus, MOI 0.001, 6 days post-infection, Lefamulin as acetate, Tiamulin as fumarate): > 67900 nM | viability (HEp2 cells; 10 μM): 84% | viability (HEp2 cells; 50 μM): 70.0% | CC50 at 6 days (in vitro [7]): 62900 nM | reduction of viral CPE ([16]; 10 μM): 16.76% | reduction of viral CPE ([16]; 50 μM): 43.28% | cytotoxic effect on the viability of the cell control (MRC-5 cells; 10 μM): no cytotoxic effect | cytotoxic effect on the viability of the cell control (MRC-5 cells; 50 μM): cytotoxic effect

C=C[C@]1(C)C[C@@H](OC(=O)CSC(C)(C)CNC(=O)[C@H](N)C(C)C)[C@]2(C)[C@H](C)CC[C@]3(CCC(=O)[C@H]32)[C@@H](C)[C@@H]1O [Valnemulin, reference compound]
reduction of MMP9 levels in lung homogenate ([17]; 100 mg/kg SC): 50% | GM-CSF in lung homogenate ([17]; all doses tested (10, 30, 100 mg/kg SC)): showed a reduction of GM-CSF levels, but was less active than Lefamulin | LPS-induced CCL2 increase in the lung homogenate ([17]; all investigated doses (10, 30, 100 mg/kg SC), Valnemulin particularly at 10 and 30 mg/kg): less active | effect on CXCL1 compared to Lefamulin [17, 21]: less effect | effect on CXCL2 compared to Lefamulin [17, 21]: less effect | IL-6 level in lung homogenate, compared with Lefamulin [17, 22]: less active | TNF-α level in lung homogenate, compared with Lefamulin [17, 22]: less active | antiviral activity [18]: did not exhibit antiviral activity | lymphocyte cell counts in BALF [19]: not significantly affected | macrophage cell counts in BALF [19]: not significantly affected | concentration of pro-inflammatory cytokines TNF-α, IL-6 and IL-1ß in bronchoalveolar lavage fluid ([20]; in vivo): attenuate | pulmonary wet-to-dry (W/D) ratio in the lung ([20]; pre-administration): significantly reduced

Lefamulin acetate
cell count in BALF ([10]; 70 mg/kg single SC dose 30 min prior to IN LPS): reduction
